Results reported in patent US20230093099A1, “COMPOUNDS AND METHODS OF TREATING CANCERS” (CULLGEN (SHANGHAI), INC., priority 2019, published 2023).

System: RS4;11 cells
Test: Cell viability assay (CellTiter-Glo) in RS4;11 cells
Assay type: cell-based
Details: Homo sapiens, 72 h; RS4;11 cells; cell viability, 3 days, CellTiter-Glo; read-out: IC50
How it was run: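 RS4;11 cells seeded at 5000 per well, exposed for 3 days to 8- or 12-point 3-fold serial dilutions. Viability read by CellTiter-Glo luminescence; IC50 fitted by nonlinear least-squares regression.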

Row | Structure (SMILES) | IC50 [nM]
1 | O=C1CCC(N2C(=O)c3ccc(CCCCCCCN4CCC(n5cc(-c6cnc7cccc(-c8cc(F)c(CN9CCOCC9)c(F)c8)c7n6)cn5)CC4)cc3C2=O)C(=O)N1 (stereo not drawn) [JA-265, 5-(7-(4-(4-(8-(3,5-Difluoro-4-(morpholinomethyl)phenyl)quinoxalin-2-yl)-1H-pyrazol-1-yl)piperidin-1-yl)heptyl)-2-(2,6-dioxopiperidin-3-yl)isoindoline-1,3-dione] | 1350
2 | O=C1CCC(N2C(=O)c3ccc(NCCCCCCN4CCC(n5cc(-c6cnc7cccc(-c8cc(F)c(CN9CCOCC9)c(F)c8)c7n6)cn5)CC4)cc3C2=O)C(=O)N1 (stereo not drawn) [JA-266, 5-((6-(4-(4-(8-(3,5-Difluoro-4-(morpholinomethyl)phenyl)quinoxalin-2-yl)-1H-pyrazol-1-yl)piperidin-1-yl)hexyl)amino)-2-(2,6-dioxopiperidin-3-yl)isoindoline-1,3-dione] | 301
3 | O=C1CCC(N2C(=O)c3ccc(OCCCCCCN4CCC(n5cc(-c6cnc7cccc(-c8cc(F)c(CN9CCOCC9)c(F)c8)c7n6)cn5)CC4)cc3C2=O)C(=O)N1 (stereo not drawn) [JA-267, 5-((6-(4-(4-(8-(3,5-Difluoro-4-(morpholinomethyl)phenyl)quinoxalin-2-yl)-1H-pyrazol-1-yl)piperidin-1-yl)hexyl)oxy)-2-(2,6-dioxopiperidin-3-yl)isoindoline-1,3-dione] | 426
4 | CS(=O)(=O)c1ccc(-c2cccc3nc(Nc4ccc(N5CCN(C(=O)CCCCCCc6ccc7c(c6)C(=O)N(C6CCC(=O)NC6=O)C7)CC5)cc4)nn23)cc1 (stereo not drawn) [JA-268, 3-(6-(7-(4-(4-((5-(4-(methylsulfonyl)phenyl)-[1,2,4]triazolo[1,5-a]pyridin-2-yl)amino)phenyl)piperazin-1-yl)-7-oxoheptyl)-1-oxoisoindolin-2-yl)piperidine-2,6-dione] | 5.4
5 | O=C1CCC(N2Cc3ccc(CCCCCCC(=O)N4CCC(n5cc(-c6cnc7cccc(-c8cc(F)c(CN9CCOCC9)c(F)c8)c7n6)cn5)CC4)cc3C2=O)C(=O)N1 (stereo not drawn) [JA-269, 3-(6-(7-(4-(4-(8-(3,5-difluoro-4-(morpholinomethyl)phenyl)quinoxalin-2-yl)-1H-pyrazol-1-yl)piperidin-1-yl)-7-oxoheptyl)-1-oxoisoindolin-2-yl)piperidine-2,6-dione] | 3.8
6 | O=C1CCC(N2Cc3cc(CCCCCCC(=O)N4CCC(n5cc(-c6cnc7cccc(-c8cc(F)c(CN9CCOCC9)c(F)c8)c7n6)cn5)CC4)ccc3C2=O)C(=O)N1 (stereo not drawn) [JA-270, 3-(5-(7-(4-(4-(8-(3,5-Difluoro-4-(morpholinomethyl)phenyl)quinoxalin-2-yl)-1H-pyrazol-1-yl)piperidin-1-yl)-7-oxoheptyl)-1-oxoisoindolin-2-yl)piperidine-2,6-dione] | 562
7 | O=C1CCC(N2Cc3cc(C#CCCCCC(=O)N4CCC(n5cc(-c6cnc7cccc(-c8cc(F)c(CN9CCOCC9)c(F)c8)c7n6)cn5)CC4)ccc3C2=O)C(=O)N1 (stereo not drawn) [JA-271, 3-(5-(7-(4-(4-(8-(3,5-Difluoro-4-(morpholinomethyl)phenyl)quinoxalin-2-yl)-1H-pyrazol-1-yl)piperidin-1-yl)-7-oxohept-1-yn-1-yl)-1-oxoisoindolin-2-yl)piperidine-2,6-dione] | 157
8 | O=C1CCC(N2Cc3ccc(NCCCCCC(=O)N4CCC(n5cc(-c6cnc7cccc(-c8cc(F)c(CN9CCOCC9)c(F)c8)c7n6)cn5)CC4)cc3C2=O)C(=O)N1 (stereo not drawn) [JA-272, 3-(6-((6-(4-(4-(8-(3,5-Difluoro-4-(morpholinomethyl)phenyl)quinoxalin-2-yl)-1H-pyrazol-1-yl)piperidin-1-yl)-6-oxohexyl)amino)-1-oxoisoindolin-2-yl)piperidine-2,6-dione] | 520
9 | O=C1CCC(N2Cc3cc(NCCCCCC(=O)N4CCC(n5cc(-c6cnc7cccc(-c8cc(F)c(CN9CCOCC9)c(F)c8)c7n6)cn5)CC4)ccc3C2=O)C(=O)N1 (stereo not drawn) [JA-273, 3-(5-((6-(4-(4-(8-(3,5-difluoro-4-(morpholinomethyl)phenyl)quinoxalin-2-yl)-1H-pyrazol-1-yl)piperidin-1-yl)-6-oxohexyl)amino)-1-oxoisoindolin-2-yl)piperidine-2,6-dione] | 66
10 | O=C1CCC(N2Cc3ccc(OCCCCCC(=O)N4CCC(n5cc(-c6cnc7cccc(-c8cc(F)c(CN9CCOCC9)c(F)c8)c7n6)cn5)CC4)cc3C2=O)C(=O)N1 (stereo not drawn) [JA-274, 3-(6-((6-(4-(4-(8-(3,5-Difluoro-4-(morpholinomethyl)phenyl)quinoxalin-2-yl)-1H-pyrazol-1-yl)piperidin-1-yl)-6-oxohexyl)oxy)-1-oxoisoindolin-2-yl)piperidine-2,6-dione] | 1670
11 | CS(=O)(=O)c1ccc(-c2cccc3nc(Nc4ccc(N5CCN(C(=O)CCCCCNc6ccc7c(c6)CN(C6CCC(=O)NC6=O)C7=O)CC5)cc4)nn23)cc1 (stereo not drawn) [JA-275, 3-(5-((6-(4-(4-((5-(4-(Methylsulfonyl)phenyl)-[1,2,4]triazolo[1,5-a]pyridin-2-yl)amino)phenyl)piperazin-1-yl)-6-oxohexyl)amino)-1-oxoisoindolin-2-yl)piperidine-2,6-dione] | 176
12 | CS(=O)(=O)c1ccc(-c2cccc3nc(Nc4ccc(N5CCN(C(=O)CCCCCNc6ccc7c(c6)C(=O)N(C6CCC(=O)NC6=O)C7)CC5)cc4)nn23)cc1 (stereo not drawn) [JA-276, 3-(6-((6-(4-(4-((5-(4-(Methylsulfonyl)phenyl)-[1,2,4]triazolo[1,5-a]pyridin-2-yl)amino)phenyl)piperazin-1-yl)-6-oxohexyl)amino)-1-oxoisoindolin-2-yl)piperidine-2,6-dione] | > 10000
13 | CS(=O)(=O)c1ccc(-c2cccc3nc(Nc4ccc(N5CCN(C(=O)CCCCCOc6ccc7c(c6)C(=O)N(C6CCC(=O)NC6=O)C7)CC5)cc4)nn23)cc1 (stereo not drawn) [JA-277, 3-(6-((6-(4-(4-((5-(4-(Methylsulfonyl)phenyl)-[1,2,4]triazolo[1,5-a]pyridin-2-yl)amino)phenyl)piperazin-1-yl)-6-oxohexyl)oxy)-1-oxoisoindolin-2-yl)piperidine-2,6-dione] | 447
14 | O=C1CCC(n2c(=O)n(CCCCCC(=O)N3CCC(n4cc(-c5cnc6cccc(-c7cc(F)c(CN8CCOCC8)c(F)c7)c6n5)cn4)CC3)c3ccccc32)C(=O)N1 (stereo not drawn) [JA-278, 3-(3-(6-(4-(4-(8-(3,5-Difluoro-4-(morpholinomethyl)phenyl)quinoxalin-2-yl)-1H-pyrazol-1-yl)piperidin-1-yl)-6-oxohexyl)-2-oxo-2,3-dihydro-1H-benzo[d]imidazol-1-yl)piperidine-2,6-dione] | > 500
15 | O=C1CCC(n2c(=O)n(CCCCCCC(=O)N3CCC(n4cc(-c5cnc6cccc(-c7cc(F)c(CN8CCOCC8)c(F)c7)c6n5)cn4)CC3)c3ccccc32)C(=O)N1 (stereo not drawn) [JA-279, 3-(3-(7-(4-(4-(8-(3,5-Difluoro-4-(morpholinomethyl)phenyl)quinoxalin-2-yl)-1H-pyrazol-1-yl)piperidin-1-yl)-7-oxoheptyl)-2-oxo-2,3-dihydro-1H-benzo[d]imidazol-1-yl)piperidine-2,6-dione] | > 500
16 | CS(=O)(=O)c1ccc(-c2cccc3nc(Nc4ccc(N5CCN(C(=O)CCCCCn6c(=O)n(C7CCC(=O)NC7=O)c7ccccc76)CC5)cc4)nn23)cc1 (stereo not drawn) [JA-280, 3-(3-(6-(4-(4-((5-(4-(Methylsulfonyl)phenyl)-[1,2,4]triazolo[1,5-a]pyridin-2-yl)amino)phenyl)piperazin-1-yl)-6-oxohexyl)-2-oxo-2,3-dihydro-1H-benzo[d]imidazol-1-yl)piperidine-2,6-dione] | > 500
17 | CS(=O)(=O)c1ccc(-c2cccc3nc(Nc4ccc(N5CCN(C(=O)CCCCCCn6c(=O)n(C7CCC(=O)NC7=O)c7ccccc76)CC5)cc4)nn23)cc1 (stereo not drawn) [JA-281, 3-(3-(7-(4-(4-((5-(4-(Methylsulfonyl)phenyl)-[1,2,4]triazolo[1,5-a]pyridin-2-yl)amino)phenyl)piperazin-1-yl)-7-oxoheptyl)-2-oxo-2,3-dihydro-1H-benzo[d]imidazol-1-yl)piperidine-2,6-dione] | > 500
18 | Cn1c(=O)n(C2CCC(=O)NC2=O)c2cccc(NCCCCCC(=O)N3CCC(n4cc(-c5cnc6cccc(-c7cc(F)c(CN8CCOCC8)c(F)c7)c6n5)cn4)CC3)c21 (stereo not drawn) [JA-282, 3-(4-((6-(4-(4-(8-(3,5-Difluoro-4-(morpholinomethyl)phenyl)quinoxalin-2-yl)-1H-pyrazol-1-yl)piperidin-1-yl)-6-oxohexyl)amino)-3-methyl-2-oxo-2,3-dihydro-1H-benzo[d]imidazol-1-yl)piperidine-2,6-dione] | > 500
19 | Cn1c(=O)n(C2CCC(=O)NC2=O)c2cccc(NCCCCCCC(=O)N3CCC(n4cc(-c5cnc6cccc(-c7cc(F)c(CN8CCOCC8)c(F)c7)c6n5)cn4)CC3)c21 (stereo not drawn) [JA-283, 3-(4-((7-(4-(4-(8-(3,5-Difluoro-4-(morpholinomethyl)phenyl)quinoxalin-2-yl)-1H-pyrazol-1-yl)piperidin-1-yl)-7-oxoheptyl)amino)-3-methyl-2-oxo-2,3-dihydro-1H-benzo[d]imidazol-1-yl)piperidine-2,6-dione] | > 500
20 | Cn1c(=O)n(C2CCC(=O)NC2=O)c2cccc(NCCCCCC(=O)N3CCN(c4ccc(Nc5nc6cccc(-c7ccc(S(C)(=O)=O)cc7)n6n5)cc4)CC3)c21 (stereo not drawn) [JA-284, 3-(3-Methyl-4-((6-(4-(4-((5-(4-(methylsulfonyl)phenyl)-[1,2,4]triazolo[1,5-a]pyridin-2-yl)amino)phenyl)piperazin-1-yl)-6-oxohexyl)amino)-2-oxo-2,3-dihydro-1H-benzo[d]imidazol-1-yl)piperidine-2,6-dione] | > 500
21 | Cn1c(=O)n(C2CCC(=O)NC2=O)c2cccc(NCCCCCCC(=O)N3CCN(c4ccc(Nc5nc6cccc(-c7ccc(S(C)(=O)=O)cc7)n6n5)cc4)CC3)c21 (stereo not drawn) [JA-285, 3-(3-Methyl-4-((7-(4-(4-((5-(4-(methylsulfonyl)phenyl)-[1,2,4]triazolo[1,5-a]pyridin-2-yl)amino)phenyl)piperazin-1-yl)-7-oxoheptyl)amino)-2-oxo-2,3-dihydro-1H-benzo[d]imidazol-1-yl)piperidine-2,6-dione] | > 500
